Results as given in patent EP1501797B1, “3-(SUBSTITUTED AMINO)-1H-INDOLE-2-CARBOXYLIC ACID ESTER AND 3-(SUBSTITUTED AMINO)-BENZO[B]THIOPHENE-2-CARBOXYLIC ACID ESTER DERIVATIVES AS INTERLEUKIN-4 GENE EXPRESSION INHIBITORS” (Aventis Pharmaceuticals Inc., priority 2002, dated 2003).

Tests used:
Swiss 3T3 fibroblasts = test: in vitro
Method: (§1) A third assay utilized in the present invention involves an in vitro cytotoxicity assay. This assay is used to further characterize the compounds in order to assess toxic activities of compounds on contact inhibited, non-dividing 3T3 fibroblasts. Other toxicity assays may be used.
(§2) Contact inhibited Swiss 3T3 fibroblasts are purchased from ATCC. The cells are maintained in 1640 RPMI supplemented with 10% fetal bovine serum (Gibco).
(§3) On day of assay, cells are detached from flasks by trypsinization, washed in medium and counted. 100 microliters of 2.5 x 10^4 cells per well are plated into Falcon brand 96 well tissue culture plates and cells incubated at 37°C in presence of 5% CO2 for 2 days or until confluent.
(§4) […] All compound dilutions are assayed in triplicate. […] Cells are returned to the incubator for 2 days.
(§5) After 2 day incubation, the 3T3 cells are assayed for viability using an MTS Assay Kit (Promega). Media is added to blank wells for background calculations. After 2 hours incubation in kit reagent, the optical density at 490 nm for each compound and control is determined by plate reader.
(§6) Results are expressed as percent cytotoxicity, i.e., (mean OD of compound wells - background OD)/ (mean OD of controls - background).
(§7) Note that starting concentration of CsA was 1 µM. […]

in vitro = settings: mouse, swiss 3t3 fibroblasts
Method: as §1, §2, §3, §4, §5, §6, §7

[1] = test system: sheep allergic to Ascaris suum; test: Sheep asthma model (Ascaris suum antigen challenge); type: in vivo
Method: Briefly, transpulmonary pressure, pulmonary resistance (RL), specific lung resistance (SRL airway hyperreactivity, airway responsiveness, are determined.
Venous blood samples (-5 ml) are obtained from a peripheral leg vein or the jugular vein for pharmacokinetic data. Measurement of Airway Mechanics: The unsedated sheep are restrained in a cart in the prone position with their heads immobilized. After topical anesthesia of the nasal passages with 2% lidocaine solution, a balloon catheter is advanced through one nostril into the lower esophagus. The animals are […] with a cuffed endotracheal tube through the other nostril using a flexible fiberoptic bronchoscope as a guide. (The cuff of the endotracheal tube is inflated only for the measurement of airway mechanics and during aerosol challenges to prevent undue discomfort. This procedure has no effect on airway mechanics). Pleural pressure is estimated with the esophageal balloon catheter (filled with one ml of air) which is positioned 5-10 cm from the gastroesophageal junction. In this position the end expiratory pleural pressure ranges between -2 and -5 cm H20. […] Lateral pressure in the trachea is measured with a sidehole catheter (inner dimension, 2.5 mm) advanced through and positioned distal to the tip of the endotracheal tube. Transpulmonary pressure, the difference between tracheal and pleural pressure, is measured with a differential pressure transducer catheter system. […] The signals of flow and transpulmonary pressure is recorded on an oscilloscope recorder which is linked to a computer for on-line calculation of RL from transpulmonary pressure, respiratory volume (obtained by digital integration) and flow. […] Immediately after the measurement of RL, thoracic gas volume (Vtg) is measured in a constant volume body plethysmograph to obtain specific lung resistance (SRL = RL . Vtg) in L x cm H20/LPS. […] To assess airway responsiveness, the cumulative carbachol dose in breath units (BU) that increases SRL 400% over the post-buffer value (i.e. PC400) is calculated from the dose response curve. […]

[2] = 3 mg/kg aerosol 30 min before antigen challenge, 2 sheep per group, FIG. 3A

## O=C(O)c1[nH]c2ccccc2c1Nc1ccncc1 [Example 28, 3-(4-Pyridinylamino)-1H-indole-2-carboxylic acid]
Swiss 3T3 fibroblasts
  toxic effects on the viability of quiescent 3T3 cells (in words): no toxic effects
In vitro
  viability at 48 h, 0.001 µM: 124%
  viability at 48 h, 0.01 µM: 112%
  viability at 48 h, 0.03 µM: 111%
  viability at 48 h, 0.1 µM: 111%
  viability at 48 h, 3 µM: 110%
  viability at 48 h, 10 µM: 99.1%
[1]; [2]
  acute increase in specific lung resistance (SRL), early bronchial response: did not affect
  late bronchial response (SRL): blocked the late response
[1]; 3 mg/kg, 2 sheep, FIG. 3B
  post challenge airway responsiveness (PC400 decrease after antigen challenge): prevented this effect
